Source: publication PMC7990037 (Nature cancer, 2020)
Counter-ions that a name gives are not always drawn.

Legend:
[1] = parallel artificial membrane permeability assay; type: in vitro ADME; settings: PAMPA, compared to high and low permeability controls
[2] = Liver microsome stability, human; settings: liver microsomes
[3] = Pharmacokinetics of STF-1084; settings: in vivo
primary human PBMCs [4] = test: PBMC toxicity; settings: 16 h
[5] = Liver microsome stability, mouse; settings: liver microsomes
epithelial cells MDCK = test: MDCK permeability assay; type: in vitro ADME
4T1-luc cells = test: Extracellular cGAMP measurement in cancer cell lines; type: cell-based, mouse
ENPP2 = ENPP2 (Homo sapiens, UniProt Q13822); test: ENPP2 inhibition assay; type: biochemical
Caco-2 monolayer = test: Caco-2 permeability assay; type: in vitro ADME; settings: Caco-2, apical to basolateral, 2 hours
[6] = tested on: cGAMP exporter(s) in 293T cGAS ENPP1−/− cells; test: Intracellular and extracellular cGAMP in 293T cGAS ENPP1−/− cells; settings: 24 hours; STF-1084 10 μM; STF-1623 2 μM; QS1 in ENPP1 null cells
[7] = biological target: T1, alkaline phosphatase (ALPL) (Homo sapiens, UniProt P05186); test: ALPL inhibition assay; type: biochemical
T1 sequence (P05186 18-524): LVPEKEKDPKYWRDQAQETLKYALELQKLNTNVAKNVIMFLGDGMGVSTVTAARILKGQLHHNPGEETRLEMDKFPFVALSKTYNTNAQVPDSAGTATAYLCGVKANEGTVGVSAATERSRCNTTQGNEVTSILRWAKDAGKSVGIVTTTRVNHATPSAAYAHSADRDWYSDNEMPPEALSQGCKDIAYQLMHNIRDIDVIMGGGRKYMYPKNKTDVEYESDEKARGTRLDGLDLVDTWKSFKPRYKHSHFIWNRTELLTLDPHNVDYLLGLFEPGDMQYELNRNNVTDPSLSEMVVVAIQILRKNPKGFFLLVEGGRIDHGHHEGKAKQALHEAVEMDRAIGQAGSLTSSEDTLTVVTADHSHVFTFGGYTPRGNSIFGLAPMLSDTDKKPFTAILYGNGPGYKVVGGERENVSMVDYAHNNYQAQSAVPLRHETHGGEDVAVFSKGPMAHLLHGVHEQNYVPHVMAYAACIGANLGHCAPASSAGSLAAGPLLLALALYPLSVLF

4T1-luc tumors = test: Established orthotopic 4T1-luc tumor growth with IR and cGAMP; type: in vivo, mouse
CD14+ PBMCs = test: Stimulation of CD14+ PBMCs with extracellular cGAMP; type: cell-based, human; settings: soluble extracellular cGAMP, 16 h
[8] = Pharmacokinetics of STF-1623 after subcutaneous injection; type: in vivo, mouse
primary human PBMCs [9] = settings: 200 nM cGAMP electroporated, 16 h; 50 μM STF-1084; 2 μM STF-1623
[10] = biological target: T2, human ENPP1 transfected into 293T cGAS ENPP1−/− cells (Homo sapiens, UniProt P22413); test: cGAMP export assay in ENPP1-transfected cells; type: cell-based
T2 sequence (P22413 1-925): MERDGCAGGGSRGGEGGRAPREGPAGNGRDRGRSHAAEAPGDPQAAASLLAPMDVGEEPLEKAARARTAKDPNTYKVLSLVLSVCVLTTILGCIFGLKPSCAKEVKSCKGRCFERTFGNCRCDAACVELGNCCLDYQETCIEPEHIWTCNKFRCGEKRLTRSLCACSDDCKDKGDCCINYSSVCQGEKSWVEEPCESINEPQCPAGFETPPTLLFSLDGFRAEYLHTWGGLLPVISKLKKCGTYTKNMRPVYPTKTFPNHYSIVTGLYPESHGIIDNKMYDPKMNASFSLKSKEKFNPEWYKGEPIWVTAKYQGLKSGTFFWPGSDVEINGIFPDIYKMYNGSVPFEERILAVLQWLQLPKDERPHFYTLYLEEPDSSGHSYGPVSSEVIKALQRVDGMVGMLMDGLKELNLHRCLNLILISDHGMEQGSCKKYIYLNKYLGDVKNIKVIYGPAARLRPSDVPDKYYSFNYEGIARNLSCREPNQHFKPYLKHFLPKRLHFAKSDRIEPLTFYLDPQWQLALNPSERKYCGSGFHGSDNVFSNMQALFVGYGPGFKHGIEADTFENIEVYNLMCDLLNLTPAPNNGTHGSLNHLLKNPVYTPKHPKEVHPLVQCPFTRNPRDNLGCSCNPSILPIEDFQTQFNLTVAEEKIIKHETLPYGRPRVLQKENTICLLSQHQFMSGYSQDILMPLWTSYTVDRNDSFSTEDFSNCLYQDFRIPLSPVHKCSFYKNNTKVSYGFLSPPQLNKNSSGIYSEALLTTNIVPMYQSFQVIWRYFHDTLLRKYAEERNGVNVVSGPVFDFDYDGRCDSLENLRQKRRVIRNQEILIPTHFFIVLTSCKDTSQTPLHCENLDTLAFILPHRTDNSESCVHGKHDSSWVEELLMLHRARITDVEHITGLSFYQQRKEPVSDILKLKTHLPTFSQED

purified mouse ENPP1 = biological target: T3, purified mouse ENPP1 (Mus musculus, UniProt P06802); test: 32P-cGAMP degradation TLC assay; type: biochemical
T3 sequence (P06802 85-906 limits assumed): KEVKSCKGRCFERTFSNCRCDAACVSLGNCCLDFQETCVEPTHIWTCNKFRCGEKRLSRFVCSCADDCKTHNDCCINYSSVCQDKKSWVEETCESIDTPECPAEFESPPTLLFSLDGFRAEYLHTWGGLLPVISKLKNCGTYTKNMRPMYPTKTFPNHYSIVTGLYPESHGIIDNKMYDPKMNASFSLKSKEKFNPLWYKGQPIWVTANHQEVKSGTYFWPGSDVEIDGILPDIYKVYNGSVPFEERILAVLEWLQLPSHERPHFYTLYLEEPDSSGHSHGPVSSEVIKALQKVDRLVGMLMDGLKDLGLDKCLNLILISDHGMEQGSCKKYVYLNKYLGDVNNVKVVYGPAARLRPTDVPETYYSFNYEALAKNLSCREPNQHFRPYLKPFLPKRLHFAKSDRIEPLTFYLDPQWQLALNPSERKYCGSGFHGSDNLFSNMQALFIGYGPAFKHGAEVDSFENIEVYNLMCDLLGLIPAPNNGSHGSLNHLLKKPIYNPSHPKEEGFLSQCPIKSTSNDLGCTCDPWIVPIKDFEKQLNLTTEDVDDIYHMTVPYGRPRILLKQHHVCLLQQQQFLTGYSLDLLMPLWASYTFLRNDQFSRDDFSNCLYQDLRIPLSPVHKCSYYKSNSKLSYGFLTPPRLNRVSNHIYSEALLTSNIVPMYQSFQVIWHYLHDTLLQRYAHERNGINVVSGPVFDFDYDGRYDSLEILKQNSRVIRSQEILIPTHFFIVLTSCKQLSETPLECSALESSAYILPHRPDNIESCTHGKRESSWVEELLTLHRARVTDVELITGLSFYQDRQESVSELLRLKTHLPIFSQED

Panc02 tumors = test: Panc02 syngeneic subcutaneous pancreatic tumor model; type: in vivo, mouse; settings: subcutaneous pump, 50 mg/kg/day

Q: Which results are given for `COc1cc2ncnc(N3CCC(CCP(=O)(O)O)CC3)c2cc1OC` [STF-1084, dimethyl (2-(1-(6,7-dimethoxyquinazolin-4-yl)piperidin-4-yl)ethyl)phosphonic acid hydrogen bromide salt]?
A: permeability category [1]: impermeable; half-life [2]: > 2.65 h; pharmacokinetics (in words) [3]: fast pharmacokinetics; toxicity to PBMCs (primary human PBMCs [4]; 100 μM): non-toxic; half-life [5]: > 2.65 h; permeability category (epithelial cells MDCK): impermeable; extracellular cGAMP (4T1-luc cells; 4T1-luc, 48 hours, serum-containing media, 50 μM STF-1084): 3,000,000 molecules/cell; Ki (ENPP2): 5500 nM; permeability category (Caco-2 monolayer): impermeable; effect on intracellular / extracellular cGAMP (cGAMP export) [6]: no effect on intracellular cGAMP; Ki [7]: > 100000 nM; tumor free survival (4T1-luc tumors; IR (20 Gy) + 10 μg cGAMP + 100 μL of 1 mM STF-1084 intratumoral on day 2, 4, 7): 1/10

Q: Which “cGAMP concentration to which CD14+ PBMCs respond by upregulating IFNB1” value (CD14+ PBMCs) does the source give for `Nc1nc2c(ncn2[C@@H]2O[C@@H]3COP(=O)(O)O[C@H]4[C@@H](O)[C@H](n5cnc6c(N)ncnc65)O[C@@H]4COP(=O)(O)O[C@@H]2[C@@H]3O)c(=O)[nH]1` [cGAMP, 2’3’-cyclic GMP-AMP] here?
A: Its value is “submicromolar”.

Q: And the tumor free survival (4T1-luc tumors; Enpp1−/− 4T1-luc tumors, IR (20 Gy) + three intratumoral injections of 10 μg cGAMP)?
A: Its tumor free survival is 3/11.

Q: And the survival (4T1-luc tumors; WT 4T1-luc tumors, IR (20 Gy) + three intratumoral injections of 10 μg cGAMP)?
A: Its survival is “no mice inoculated with WT tumors survived”.

Q: What does the source list for `COc1cccc2c(N3CCC(CCP(=O)(O)O)CC3)ncnc12` [STF-1623, (2-(1-(8-methoxyquinazolin-4-yl)piperidin-4-yl)ethyl)phosphonic acid]?
A: permeability category [1]: cell impermeable; half-life [2]: > 2.65 h; concentration at 24 h ([8]; mouse, plasma, sc, 300 mg/kg): > 100 nM; pharmacokinetic profile (in words) ([8]; systemic dosing): improved pharmacokinetic profile compared to STF-1084; cytokine production (IFNB1, CXCL10 mRNA) after cGAMP electroporation (primary human PBMCs [9]): no effect on cytokine production; IC50 [10]: 68 nM; toxicity to PBMCs (primary human PBMCs [4]): not toxic; half-life [5]: > 2.65 h; Ki (purified mouse ENPP1): 16 nM; permeability category (epithelial cells MDCK): cell impermeable; tumor growth, combination with IR (Panc02 tumors; day 0 to 8, IR (20 Gy) on day 1): synergized with IR to delay tumor growth; tumor growth, single agent (Panc02 tumors; day 0 to 8, no IR): delayed tumor growth as a single agent; permeability category (Caco-2 monolayer): cell impermeable; effect on intracellular / extracellular cGAMP (cGAMP export) [6]: affected only extracellular cGAMP concentrations

B1: mENPP1: purified soluble recombinant mouse ENPP1, cGAMP hydrolase (protein, UniProt P06802 80-906, looked up)
extracellular domain: KPSCAKEVKSCKGRCFERTFSNCRCDAACVSLGNCCLDFQETCVEPTHIWTCNKFRCGEKRLSRFVCSCADDCKTHNDCCINYSSVCQDKKSWVEETCESIDTPECPAEFESPPTLLFSLDGFRAEYLHTWGGLLPVISKLKNCGTYTKNMRPMYPTKTFPNHYSIVTGLYPESHGIIDNKMYDPKMNASFSLKSKEKFNPLWYKGQPIWVTANHQEVKSGTYFWPGSDVEIDGILPDIYKVYNGSVPFEERILAVLEWLQLPSHERPHFYTLYLEEPDSSGHSHGPVSSEVIKALQKVDRLVGMLMDGLKDLGLDKCLNLILISDHGMEQGSCKKYVYLNKYLGDVNNVKVVYGPAARLRPTDVPETYYSFNYEALAKNLSCREPNQHFRPYLKPFLPKRLHFAKSDRIEPLTFYLDPQWQLALNPSERKYCGSGFHGSDNLFSNMQALFIGYGPAFKHGAEVDSFENIEVYNLMCDLLGLIPAPNNGSHGSLNHLLKKPIYNPSHPKEEGFLSQCPIKSTSNDLGCTCDPWIVPIKDFEKQLNLTTEDVDDIYHMTVPYGRPRILLKQHHVCLLQQQQFLTGYSLDLLMPLWASYTFLRNDQFSRDDFSNCLYQDLRIPLSPVHKCSYYKSNSKLSYGFLTPPRLNRVSNHIYSEALLTSNIVPMYQSFQVIWHYLHDTLLQRYAHERNGINVVSGPVFDFDYDGRYDSLEILKQNSRVIRSQEILIPTHFFIVLTSCKQLSETPLECSALESSAYILPHRPDNIESCTHGKRESSWVEELLTLHRARVTDVELITGLSFYQDRQESVSELLRLKTHLPIFSQED
modifications: extracellular domain
Q: Which “extracellular cGAMP signal” value (4T1-luc cells; 4T1-luc conditioned media incubated with 10 nM recombinant mENPP1 overnight) does the source give for B1 here?
A: The value was “abolished the cGAMP signal”.
